Laboratory results as given in PMC6234094 (Bioorganic & medicinal chemistry, 2018).

Key:
[1] = test system: LasR; conditions: cited from earlier work
[2] = target: T1, QscR (Pseudomonas aeruginosa, UniProt G3XD77); test: QscR agonism, E. coli JLD271; assay type: cell-based; conditions: for Reduction in potency relative to OdDHL (1) in QscR: ratio of EC50 to that of OdDHL, QscR reporter; for QscR agonism, result in words: E. coli QscR reporter
[3] = target: T2, LasR (Pseudomonas aeruginosa, UniProt P25084); test: LasR agonism, E. coli JLD271; assay type: cell-based; conditions: for Loss in potency (EC50) relative to OdDHL (1) in LasR: ratio of EC50 to that of OdDHL, LasR reporter
T2 sequence (P25084 whole entry): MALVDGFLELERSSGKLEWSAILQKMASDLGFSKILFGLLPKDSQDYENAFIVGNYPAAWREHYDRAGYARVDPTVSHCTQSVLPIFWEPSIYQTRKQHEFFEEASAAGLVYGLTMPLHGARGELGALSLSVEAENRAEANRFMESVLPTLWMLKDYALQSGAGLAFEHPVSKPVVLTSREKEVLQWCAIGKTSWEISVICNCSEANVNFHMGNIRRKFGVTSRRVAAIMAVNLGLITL

[4] = target: T1, QscR; test: QscR antagonism in competition with OdDHL, E. coli reporter assay; assay type: cell-based
[5] = target: T2, LasR; test: LasR antagonism in competition with OdDHL, E. coli reporter assay; assay type: cell-based; conditions: dose response in competition against OdDHL (1)
[6] = target: T1, QscR; conditions: cited from earlier work

Row | Compound | LasR agonism, result in words (earlier report) [1] | Reduction in potency relative to OdDHL (1) in QscR [2] | Loss in potency (EC50) relative to OdDHL (1) in LasR [3] | QscR agonism, result in words [2] | further results
1 | CCCCCCCCCC(=O)CC(=O)N[C@H]1CCSC1=O [Compound 3] | agonize LasR comparably to OdDHL | five-fold less potent | – | – | –
2 | CCCCCCCCCC(=O)CC(=O)N[C@H]1CCNC1=O [Compound 4] | – | > 200 fold | 10–20 fold | – | Potency in LasR relative to OdDHL based on EC50 (earlier report) ([1]; less potent than OdDHL): about 100 fold
3 | CCCCCCCCCC(=O)CC(=O)N[C@H]1CCCC1=O [Compound 5] | retained agonistic activity in LasR but was not nearly as potent as OdDHL | ~ 55 fold | 10–20 fold | – | –
4 | CCCCCCCCCC(=O)CC(=O)NC1CCCC1 [Compound 6] | some agonistic activity | 24 fold | 100 fold | – | –
5 | CCCCCCCCCC(=O)CC(=O)N[C@H]1CCOC1 [Compound 7] | – | – | 600 fold | – | –
6 | CCCCCCCCCC(=O)CC(=O)N[C@H]1CCO[C@@H]1O [Compound 8] | – | – | ~ 1200 fold | very weak QscR agonist | Concentration at which LasR is agonized (earlier report) ([1]; only at very high concentrations): 400 µM
7 | CCCCCCCCCC(=O)CC(=O)NCC1CCCO1 (centres unmarked) [Compound 9] | – | – | – | negligible activity | IC50 [4]: > 250 µM
8 | CCCCCCCCCCCS(=O)(=O)N[C@H]1CCOC1=O [Compound 10] | – | – | – | weak agonistic activity | LasR antagonism, result in words [5]: failed to antagonize LasR; LasR agonism, result in words ([3]; E. coli LasR reporter): inactive; QscR activity, result in words (earlier report) [6]: mild agonist; LasR activity, result in words (earlier report) [1]: inactive
9 | CCCCCCCCCC(=O)CC(=O)O[C@H]1CCOC1=O [Compound 11] | – | – | – | – | IC50 [4]: > 250 µM
